What all share (type): in vivo, mouse
One series concerns cholesterol absorption. The series is described as follows: Cholesterol absorption, fecal dual-isotope ratio method. Conditions: single gavage, feces 24 hours. The procedure: FIGS. 5A-I depict several graphs that illustrate that SPT deficient mice absorbed less cholesterol. Mice (n=6, 10-12 weeks old) were fasted for 5 hours and gavaged with 0.1 microCi [^14C]cholesterol and 0.2 microCi [^3H]sitostanol with 0.5 mg unlabeled cholesterol dissolved in 15 microl of olive oil. Feces were collected after 24 hours and lipids were extracted for counting (FIGS. 5A, 5D, and 5G, cholesterol absorption, WT vs WT/myriocin; apoE KO vs apoE KO/myriocin; WT vs Sptlc1^+/−, respectively). Blood was collected during the 24 hour period (Panels B, E, and H, [^14C]cholesterol in blood, WT vs WT/myriocin; apoE KO vs apoE KO/myriocin; WT vs Sptlc1^+/−, respectively). To test specificity, the mice were gavaged with 0.2 microCi [^3H]triolein together with 0.5 mg/ml cold cholesterol. Blood was collected during the 24 hour period (FIGS. 5C, 5F, and 5I, [^3H] glycerolipids in blood, WT versus WT/myriocin; apoE KO versus apoE KO/myriocin; WT versus Sptlc1^+/−, respectively). […]
Cholesterol absorption studies: A classical fecal dual-isotope ratio method was used for the cholesterol absorption study. […] The cholesterol absorption ratio was calculated as: % absorption={1−[fecal(^14C/^3H)]/administered(^14C/^3H)}×100. In some cases, mice were sacrificed, plasma collected, and radioactivity counted. […] Each of these, as well as a part of the liver, were digested and radioactivity counted individually. […]

Another series has as its system triglyceride absorption. The series is described as follows: [3H]triolein-derived counts in plasma (triglyceride absorption). The note with it: myriocin treated animals (WT, apoE KO), within 24 hours. On the procedure:
FIGS. 5A-I depict several graphs that illustrate that SPT deficient mice absorbed less cholesterol. Mice (n=6, 10-12 weeks old) were fasted for 5 hours and gavaged with 0.1 microCi [^14C]cholesterol and 0.2 microCi [^3H]sitostanol with 0.5 mg unlabeled cholesterol dissolved in 15 microl of olive oil. Feces were collected after 24 hours and lipids were extracted for counting (FIGS. 5A, 5D, and 5G, cholesterol absorption, WT vs WT/myriocin; apoE KO vs apoE KO/myriocin; WT vs Sptlc1^+/−, respectively). Blood was collected during the 24 hour period (Panels B, E, and H, [^14C]cholesterol in blood, WT vs WT/myriocin; apoE KO vs apoE KO/myriocin; WT vs Sptlc1^+/−, respectively). To test specificity, the mice were gavaged with 0.2 microCi [^3H]triolein together with 0.5 mg/ml cold cholesterol. Blood was collected during the 24 hour period (FIGS. 5C, 5F, and 5I, [^3H] glycerolipids in blood, WT versus WT/myriocin; apoE KO versus apoE KO/myriocin; WT versus Sptlc1^+/−, respectively). Value is mean±SD. *P<0.01.
To investigate whether the effect of SPT deficiency was specific to cholesterol, experimental mice were fed with […] [^3H]triolein instead of [^14C]cholesterol, and blood was collected at different time points within 24 hours.

The next series concerns NPC1L1 mRNA. The series is described as follows: Real-time PCR, NPC1L1 mRNA. The note with it: small intestine (jejunum). On the procedure:
(§1) FIGS. 9A-F depict that Mouse small intestine and liver NPC1L1, ABCG5/G8, and ABCA1 mRNA measurements. NPC1L1, ABCG5/G8, and ABCA1 mRNA levels were measured by real-time PCR as described in “Methods and Materials.” FIG. 9A, jejunum from WT mice with or without myriocin treatment; FIG. 9B, jejunum from apoE KO mice with or without myriocin treatment; FIG. 9C, jejunum from WT and Sptlc1^+/− mice; FIG. 9D, liver from WT mice with or without myriocin treatment; FIG. 9E, liver from apoE KO mice with or without myriocin treatment; FIG. 9F, liver from WT and Sptlc1^+/− mice. Values are mean±SD, n=5. *P<0.01.
Real-time PCR examined genes' expression: Mice were sacrificed by cervical dislocation. Jejunum was dissected, and total RNA extracted with Trizol (Invitrogen). cDNA was synthesized with an Invitrogen kit. […] The genes' relative expression was expressed as mean±SD. […]
For further elucidation of the possible mechanisms for cholesterol absorption reduction in the SPT-deficient small intestine, NPC1L1, ABCG5/G8, and ABCA1 mRNA levels in myriocin-treated WT, apoE KO, and Sptlc1^+/− mice, as well as in controls were measured. […] Also, the liver mRNA levels were measured to find that myriocin treatment or Sptlc1 deficiency has no influence on ABCG5/G8 mRNA levels (FIG. 7B). […] NPC1L1 mRNA in WT or Sptlc1^+/− livers were not detected (data not shown).
For orientation: Quantitative PCR measures a nucleic acid by following its amplification.

Another series concerns ABCG5 mRNA. The series is described as follows: Real-time PCR, ABCG5 mRNA. The note with it: for increase of ABCG5 mRNA levels compared with controls: small intestine, P<0.01. On the procedure: as §1
(§2) Real-time PCR examined genes' expression: Mice were sacrificed by cervical dislocation. Jejunum was dissected, and total RNA extracted with Trizol (Invitrogen). cDNA was synthesized with an Invitrogen kit. Polymerase chain reaction (PCR) was performed on a total volume of 20 microl with the sybergreen kit from Applied Biosystems, 18S being used as an internal control. The amplification program consisted of activation at 95 degrees C. for 10 minutes, followed by 40 amplification cycles: 95 degrees C. for 15 seconds, 60 degrees C. for 1 minute. Each sample was triplicated. The genes' relative expression was expressed as mean±SD. The primers are located in the below table which lists the name, sequence, and sequence identification number.
(§3) For further elucidation of the possible mechanisms for cholesterol absorption reduction in the SPT-deficient small intestine, NPC1L1, ABCG5/G8, and ABCA1 mRNA levels in myriocin-treated WT, apoE KO, and Sptlc1^+/− mice, as well as in controls were measured. […] Moreover, intestinal MTP activity was not influenced by SPT deficiency (data not shown). Also, the liver mRNA levels were measured to find that myriocin treatment or Sptlc1 deficiency has no influence on ABCG5/G8 mRNA levels […]. […] NPC1L1 mRNA in WT or Sptlc1^+/− livers were not detected (data not shown).

A further series relates to ABCA1 mRNA. The series is described as follows: Real-time PCR, ABCA1 mRNA. The note with it: for decrease of ABCA1 mRNA levels: liver, P<0.05; for decrease of ABCA1 mRNA levels compared with controls: small intestine, P<0.01. The procedure:
as §1, §2, §3

A further series deals with small intestine. The series is described as follows: Small intestine morphology, hematoxylin and eosin staining. The note with it: WT and apoE KO mice after myriocin treatment. The text has this: The small intestine was dissected out and put into 4% paraformaldehyde for fixation overnight. The tissue was then sliced (10 micrometer thick). Each slice was deparaffinized and stained with hematoxylin and eosin. The morphology was checked by microscope. WT mice fed chow diet (FIGS. 2A, 2B) or chow diet plus myriocin (FIGS. 2C, 2D). FIGS. 2A and 2C are at 10× magnification, while FIGS. 2B and 2D are at 40× magnification.
The small intestine was dissected out and put into 4% paraformaldehyde for fixation overnight. The tissue was then sliced (10 micrometer thick). Each slice was deparaffinized and stained with hematoxylin and eosin. The morphology was checked by microscope. apoE KO mice fed chow diet (FIGS. 3A, 3B) or chow diet plus myriocin (FIGS. 3C, 3D). FIGS. 3A and 3C are at 10× magnification, while FIGS. 3B and 3D are at 40× magnification.
Mouse small intestine hematoxylin and eosin staining: The small intestine was dissected out and put into 4% paraformaldehyde for fixation overnight. The tissue was then sliced (10 micro m thick). Each slice was deparaffinized and stained with hematoxylin and eosin.
To investigate whether myriocin treatment or Sptlc1^+/− had any impact on small intestine morphology, intestinal sections were stained with hematoxylin and eosin. As shown in FIGS. 2 through 4, neither myriocin treatment nor Sptlc1^+/− influenced the morphology of the small intestine.

Entries after “also recorded” stand apart in the source; their conditions may differ.

For the compound `CCCCCCC(=O)CCCCCC/C=C/C[C@@H](O)[C@H](O)[C@@](N)(CO)C(=O)O` [Myriocin, myriocin], the “reduction in cholesterol absorption compared with controls” value is given as 36% in the series with cholesterol absorption (myriocin-treated WT mice, P<0.01) and 50% in the series on cholesterol absorption (myriocin-treated apoE KO mice, P<0.001). Also, in the series on triglyceride absorption, the “[3H]triolein-derived counts in the plasma vs controls” value is “No significant changes”. Also, in the series on NPC1L1 mRNA, the “NPC1L1 mRNA levels” value is given as “No significant changes”. Moreover, the “ABCG5 mRNA levels (printed ABCG5/G8)” value in the series with ABCG5 mRNA (liver) was “no influence”. The “increase of ABCG5 mRNA levels compared with controls” value in the series on ABCG5 mRNA (WT mice) turned out to be 52%; in the series on ABCG5 mRNA (apoE KO mice), 69%. For the same compound, the “decrease of ABCA1 mRNA levels” value is listed as 20% in the series on ABCA1 mRNA (WT mice) and 18% in the series with ABCA1 mRNA (apoE KO mice). In addition, the “decrease of ABCA1 mRNA levels compared with controls” value in the series with ABCA1 mRNA (WT mice) stood at 48%; in the series with ABCA1 mRNA (apoE KO mice) it was 39%. Further, the “morphology / pathological changes of the small intestine (gastrointestinal toxicity)” value in the series on small intestine is “no pathological changes; also recorded: intact villi, epithelia, enterocytes, goblet cells, and brush borders”.
